From publication PMC10682951, “Structure-function and rational design of a spider toxin Ssp1a at human voltage-gated sodium channel subtypes” (Frontiers in Pharmacology, 2023)
Bridge positions count the residues as written; N and C are the ends. Peptide text beside a SMILES is read from it.

Experiments:
Format in all cases: cell-based
hNaV1.2 = molecular target: T1, hNaV1.2 (Homo sapiens, UniProt Q99250); test: Automated whole-cell patch-clamp (QPatch 16X), hNaV1.2; settings: for IC50: HEK293 cells expressing hNaV1.2 + β1 subunit, QPatch 16X, holding −80 mV, step to 0 mV, peptide incubated 2 min, 0.1% BSA, mean, SEM and n (2-7)
T1 construct: host or cells: HEK293
T1 sequence (Q07699 19-218): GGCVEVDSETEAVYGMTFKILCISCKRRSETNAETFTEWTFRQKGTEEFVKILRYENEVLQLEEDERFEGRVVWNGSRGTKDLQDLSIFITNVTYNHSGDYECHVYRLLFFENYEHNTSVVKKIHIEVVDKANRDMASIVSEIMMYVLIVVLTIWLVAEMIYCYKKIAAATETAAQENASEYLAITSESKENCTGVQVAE
T1 sequence (Q99250 whole entry): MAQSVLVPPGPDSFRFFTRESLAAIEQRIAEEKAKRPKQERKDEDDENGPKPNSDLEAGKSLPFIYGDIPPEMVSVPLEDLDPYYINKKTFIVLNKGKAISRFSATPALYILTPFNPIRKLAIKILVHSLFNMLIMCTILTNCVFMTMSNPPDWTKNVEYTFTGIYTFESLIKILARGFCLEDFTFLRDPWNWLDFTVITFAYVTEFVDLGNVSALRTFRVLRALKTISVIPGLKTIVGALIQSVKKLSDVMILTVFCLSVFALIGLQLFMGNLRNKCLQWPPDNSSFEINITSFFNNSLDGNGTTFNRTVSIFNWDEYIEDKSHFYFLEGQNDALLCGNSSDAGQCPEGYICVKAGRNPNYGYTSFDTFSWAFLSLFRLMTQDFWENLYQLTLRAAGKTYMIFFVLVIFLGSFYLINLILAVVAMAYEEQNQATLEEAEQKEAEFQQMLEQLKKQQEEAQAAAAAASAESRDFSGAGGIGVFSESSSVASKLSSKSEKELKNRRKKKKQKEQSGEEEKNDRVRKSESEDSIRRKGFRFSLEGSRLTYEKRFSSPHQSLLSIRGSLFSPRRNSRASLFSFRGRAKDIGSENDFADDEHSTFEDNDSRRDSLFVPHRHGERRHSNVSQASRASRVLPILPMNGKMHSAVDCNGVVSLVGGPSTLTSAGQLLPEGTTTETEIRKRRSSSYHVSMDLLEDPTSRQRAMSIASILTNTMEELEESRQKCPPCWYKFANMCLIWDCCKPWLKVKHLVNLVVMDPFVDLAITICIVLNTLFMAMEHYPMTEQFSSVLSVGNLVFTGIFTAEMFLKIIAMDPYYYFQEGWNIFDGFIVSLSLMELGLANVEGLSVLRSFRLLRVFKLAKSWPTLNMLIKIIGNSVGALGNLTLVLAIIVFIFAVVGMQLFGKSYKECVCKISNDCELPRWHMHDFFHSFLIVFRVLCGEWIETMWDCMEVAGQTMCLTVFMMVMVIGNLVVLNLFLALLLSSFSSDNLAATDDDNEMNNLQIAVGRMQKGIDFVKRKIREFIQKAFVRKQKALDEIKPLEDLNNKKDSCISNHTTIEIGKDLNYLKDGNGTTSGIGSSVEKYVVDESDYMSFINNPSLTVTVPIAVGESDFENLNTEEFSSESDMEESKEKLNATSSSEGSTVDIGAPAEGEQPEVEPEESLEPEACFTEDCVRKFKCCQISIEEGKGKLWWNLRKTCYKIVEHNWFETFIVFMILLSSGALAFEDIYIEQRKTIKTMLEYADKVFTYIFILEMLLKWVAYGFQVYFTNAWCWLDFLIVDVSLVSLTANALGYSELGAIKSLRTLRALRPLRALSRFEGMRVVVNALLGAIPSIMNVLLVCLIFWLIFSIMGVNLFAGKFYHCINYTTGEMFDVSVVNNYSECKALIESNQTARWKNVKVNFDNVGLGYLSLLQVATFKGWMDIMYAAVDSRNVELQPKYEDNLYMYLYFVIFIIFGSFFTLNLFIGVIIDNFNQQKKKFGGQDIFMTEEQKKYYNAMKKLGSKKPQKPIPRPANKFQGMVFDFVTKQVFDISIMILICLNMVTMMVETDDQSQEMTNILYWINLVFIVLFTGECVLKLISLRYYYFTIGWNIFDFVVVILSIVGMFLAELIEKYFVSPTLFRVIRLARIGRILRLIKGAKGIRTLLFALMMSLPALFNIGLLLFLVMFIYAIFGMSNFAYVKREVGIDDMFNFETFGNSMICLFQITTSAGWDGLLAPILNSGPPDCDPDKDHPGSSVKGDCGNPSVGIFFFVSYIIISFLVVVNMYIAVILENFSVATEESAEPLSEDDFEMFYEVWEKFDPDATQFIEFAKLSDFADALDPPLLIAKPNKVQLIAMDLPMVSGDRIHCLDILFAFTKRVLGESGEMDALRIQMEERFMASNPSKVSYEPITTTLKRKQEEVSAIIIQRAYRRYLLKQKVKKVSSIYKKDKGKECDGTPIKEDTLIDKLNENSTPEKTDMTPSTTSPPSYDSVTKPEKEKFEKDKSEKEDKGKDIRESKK
Outline: (§1)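 HEK293 cells stably expressing the channel (human subtypes with β1 subunit), held at −80 mV; 2 min peptide pre-incubation, then 20 ms steps to 0 mV after a 200 ms −120 mV conditioning pulse. Extracellular pH 7.3 with 20 mM TEA-Cl, CsF-based pipette solution, 0.1% BSA; IC50 from four-parameter Hill fit.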

hNaV1.3 = molecular target: T2, hNaV1.3 (Homo sapiens, UniProt Q9NY46); test: Automated whole-cell patch-clamp (QPatch 16X), hNaV1.3; settings: HEK293 cells expressing hNaV1.3 + β1 subunit; QPatch 16X; holding −80 mV, step to 0 mV; peptide incubated 2 min; 0.1% BSA; mean, SEM and n (3-12)
T2 construct: host or cells: HEK293
T2 sequence (Q9NY46 whole entry): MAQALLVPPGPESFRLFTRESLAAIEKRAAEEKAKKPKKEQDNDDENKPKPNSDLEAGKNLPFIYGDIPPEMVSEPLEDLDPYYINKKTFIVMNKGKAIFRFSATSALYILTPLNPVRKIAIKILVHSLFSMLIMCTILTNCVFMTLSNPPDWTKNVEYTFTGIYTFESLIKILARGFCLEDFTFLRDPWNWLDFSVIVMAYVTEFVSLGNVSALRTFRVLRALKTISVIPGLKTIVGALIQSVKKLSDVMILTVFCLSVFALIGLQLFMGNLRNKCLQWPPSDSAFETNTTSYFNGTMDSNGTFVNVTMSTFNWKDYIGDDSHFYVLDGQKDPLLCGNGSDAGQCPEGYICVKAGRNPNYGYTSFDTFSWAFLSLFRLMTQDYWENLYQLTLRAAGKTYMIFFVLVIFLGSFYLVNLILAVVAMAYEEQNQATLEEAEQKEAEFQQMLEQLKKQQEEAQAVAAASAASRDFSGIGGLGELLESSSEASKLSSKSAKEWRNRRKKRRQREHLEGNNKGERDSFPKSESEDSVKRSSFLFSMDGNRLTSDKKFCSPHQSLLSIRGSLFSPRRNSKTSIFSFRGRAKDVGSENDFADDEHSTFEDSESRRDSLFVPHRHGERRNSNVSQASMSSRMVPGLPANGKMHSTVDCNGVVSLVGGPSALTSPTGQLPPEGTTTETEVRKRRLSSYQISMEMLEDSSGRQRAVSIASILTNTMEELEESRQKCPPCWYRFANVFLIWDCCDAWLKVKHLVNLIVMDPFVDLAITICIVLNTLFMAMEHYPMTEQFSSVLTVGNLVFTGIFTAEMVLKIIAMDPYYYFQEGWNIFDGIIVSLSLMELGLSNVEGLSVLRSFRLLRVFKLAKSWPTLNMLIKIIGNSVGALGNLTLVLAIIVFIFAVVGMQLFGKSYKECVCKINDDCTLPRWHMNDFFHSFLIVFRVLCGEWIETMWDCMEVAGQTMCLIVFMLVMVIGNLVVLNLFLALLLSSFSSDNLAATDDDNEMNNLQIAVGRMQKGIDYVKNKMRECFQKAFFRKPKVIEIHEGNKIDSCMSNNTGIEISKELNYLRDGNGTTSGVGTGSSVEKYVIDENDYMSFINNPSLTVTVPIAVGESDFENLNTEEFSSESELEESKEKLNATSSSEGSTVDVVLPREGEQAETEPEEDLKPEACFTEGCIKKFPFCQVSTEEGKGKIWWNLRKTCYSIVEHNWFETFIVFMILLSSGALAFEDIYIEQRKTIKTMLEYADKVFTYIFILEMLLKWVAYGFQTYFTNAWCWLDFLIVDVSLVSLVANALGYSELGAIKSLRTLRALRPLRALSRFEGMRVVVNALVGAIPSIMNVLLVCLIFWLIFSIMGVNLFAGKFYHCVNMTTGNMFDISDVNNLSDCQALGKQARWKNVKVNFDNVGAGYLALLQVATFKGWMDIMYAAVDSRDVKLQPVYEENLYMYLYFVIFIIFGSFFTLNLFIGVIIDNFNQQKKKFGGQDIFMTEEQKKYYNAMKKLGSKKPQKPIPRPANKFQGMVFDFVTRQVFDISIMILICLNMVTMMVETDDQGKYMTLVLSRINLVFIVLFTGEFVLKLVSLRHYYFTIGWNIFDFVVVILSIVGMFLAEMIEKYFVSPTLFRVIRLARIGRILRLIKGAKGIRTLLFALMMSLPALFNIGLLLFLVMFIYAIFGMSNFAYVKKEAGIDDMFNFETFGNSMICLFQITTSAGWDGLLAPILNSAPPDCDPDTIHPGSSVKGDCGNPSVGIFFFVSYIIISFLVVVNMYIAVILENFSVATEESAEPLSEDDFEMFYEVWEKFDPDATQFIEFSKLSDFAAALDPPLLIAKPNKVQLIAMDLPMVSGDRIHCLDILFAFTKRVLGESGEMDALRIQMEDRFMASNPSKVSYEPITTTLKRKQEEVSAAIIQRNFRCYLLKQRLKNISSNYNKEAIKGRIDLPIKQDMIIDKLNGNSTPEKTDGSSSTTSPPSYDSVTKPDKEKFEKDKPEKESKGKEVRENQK
T2 sequence (Q07699 19-218, further chain): as the sequence (Q07699 19-218) above
Outline: as §1

hNaV1.7 = molecular target: T3, hNaV1.7 (Homo sapiens, UniProt Q15858); test: Automated whole-cell patch-clamp (QPatch 16X), hNaV1.7; settings: for IC50: HEK293 cells expressing hNaV1.7 + β1 subunit, QPatch 16X, holding −80 mV, step to 0 mV, peptide incubated 2 min, 0.1% BSA, mean, SEM and n (3-9)
T3 construct: host or cells: HEK293
Outline: as §1

Row | Structure (SMILES) | IC50 (hNaV1.2) [µM] | IC50 (hNaV1.3) [µM] | IC50 (hNaV1.7) [µM] | Loss (reduction) in potency vs rSsp1a at hNaV1.2 (hNaV1.2; relative to wild type rSsp1a) [fold] | Loss (reduction) in potency vs rSsp1a at hNaV1.7 (hNaV1.7; relative to wild type rSsp1a) [fold]
1 | CC(C)C[C@H](NC(=O)[C@H](CC(=O)O)NC(=O)[C@H](Cc1ccc(O)cc1)NC(=O)[C@H](CCCNC(=N)N)NC(=O)[C@@H]1CSSC[C@@H]2NC(=O)[C@H](CCCCN)NC(=O)[C@H](CC(N)=O)NC(=O)[C@H](CC(N)=O)NC(=O)[C@H](CC(N)=O)NC(=O)[C@@H]3CCCN3C(=O)[C@H](CC(=O)O)NC(=O)[C@@H]3CSSC[C@H](NC(=O)[C@H](C(C)C)NC(=O)[C@H](Cc4ccc(O)cc4)NC(=O)CNC(=O)[C@H](Cc4ccccc4)NC(=O)[C@H](CSSC[C@H](NC(=O)[C@H](CC(=O)O)NC(=O)CN)C(=O)N[C@@H](CC(C)C)C(=O)NCC(=O)N[C@@H](Cc4c[nH]c5ccccc45)C(=O)N[C@@H](Cc4ccccc4)C(=O)N[C@@H](CO)C(=O)NCC(=O)N3)NC2=O)C(=O)N[C@@H](Cc2c[nH]cn2)C(=O)N[C@@H](Cc2c[nH]c3ccccc23)C(=O)N[C@@H](CCCCN)C(=O)N[C@@H](Cc2ccc(O)cc2)C(=O)N2CCC[C@H]2C(=O)N[C@@H](Cc2c[nH]c3ccccc23)C(=O)N1)C(=O)O [E18F] | 0.232 | 0.395 | 0.171 |  | 
2 | CC(C)C[C@H](NC(=O)[C@H](CC(=O)O)NC(=O)[C@H](Cc1ccc(O)cc1)NC(=O)[C@H](CCCNC(=N)N)NC(=O)[C@@H]1CSSC[C@@H]2NC(=O)[C@H](CCCCN)NC(=O)[C@H](CC(N)=O)NC(=O)[C@H](CC(N)=O)NC(=O)[C@H](CC(N)=O)NC(=O)[C@@H]3CCCN3C(=O)[C@H](CC(=O)O)NC(=O)[C@@H]3CSSC[C@H](NC(=O)[C@H](C(C)C)NC(=O)[C@H](Cc4ccc(O)cc4)NC(=O)CNC(=O)[C@H](CCC(=O)O)NC(=O)[C@H](CSSC[C@H](NC(=O)[C@H](CC(=O)O)NC(=O)CN)C(=O)N[C@@H](CC(C)C)C(=O)NCC(=O)N[C@@H](Cc4c[nH]c5ccccc45)C(=O)N[C@@H](Cc4ccccc4)C(=O)N[C@@H](CO)C(=O)NCC(=O)N3)NC2=O)C(=O)N[C@@H](Cc2c[nH]cn2)C(=O)N[C@@H](Cc2c[nH]c3ccccc23)C(=O)N[C@@H](C)C(=O)N[C@@H](Cc2ccc(O)cc2)C(=O)N2CCC[C@H]2C(=O)N[C@@H](Cc2c[nH]c3ccccc23)C(=O)N1)C(=O)O [K25A] (H-GDCLGWFSGCDPNNNKCCEGYVCHWAYPWCRYDL-OH; disulfide 3-18, 10-23, 17-30 (inferred); N-terminus and C-terminus assumed) | > 1 | > 1 | > 1 | ≥ 10 | ≥ 10
3 | CC(C)C[C@H](NC(=O)[C@H](CC(=O)O)NC(=O)[C@H](Cc1ccc(O)cc1)NC(=O)[C@H](CCCNC(=N)N)NC(=O)[C@@H]1CSSC[C@@H]2NC(=O)[C@H](CCCCN)NC(=O)[C@H](CC(N)=O)NC(=O)[C@H](CC(N)=O)NC(=O)[C@H](CC(N)=O)NC(=O)[C@@H]3CCCN3C(=O)[C@H](CC(=O)O)NC(=O)[C@@H]3CSSC[C@H](NC(=O)[C@H](C(C)C)NC(=O)[C@H](Cc4ccc(O)cc4)NC(=O)CNC(=O)[C@H](CCC(=O)O)NC(=O)[C@H](CSSC[C@H](NC(=O)[C@H](CC(=O)O)NC(=O)CN)C(=O)N[C@@H](CC(C)C)C(=O)NCC(=O)N[C@@H](Cc4c[nH]c5ccccc45)C(=O)N[C@@H](Cc4ccccc4)C(=O)N[C@@H](CO)C(=O)NCC(=O)N3)NC2=O)C(=O)N[C@@H](Cc2c[nH]cn2)C(=O)N[C@@H](CO)C(=O)N[C@@H](CCCCN)C(=O)N[C@@H](Cc2ccc(O)cc2)C(=O)N2CCC[C@H]2C(=O)N[C@@H](Cc2c[nH]c3ccccc23)C(=O)N1)C(=O)O [W24S] | 1.46 | > 3 | > 3 |  | 
4 | CC(C)C[C@H](NC(=O)[C@H](CC(=O)O)NC(=O)[C@H](Cc1ccc(O)cc1)NC(=O)[C@H](CCCNC(=N)N)NC(=O)[C@@H]1CSSC[C@@H]2NC(=O)[C@H](CCCCN)NC(=O)[C@H](CC(N)=O)NC(=O)[C@H](CC(N)=O)NC(=O)[C@H](CC(N)=O)NC(=O)[C@@H]3CCCN3C(=O)[C@H](CC(=O)O)NC(=O)[C@@H]3CSSC[C@H](NC(=O)[C@H](C(C)C)NC(=O)[C@H](Cc4ccc(O)cc4)NC(=O)CNC(=O)[C@H](CCC(=O)O)NC(=O)[C@H](CSSC[C@H](NC(=O)[C@H](CC(=O)O)NC(=O)CN)C(=O)N[C@@H](CC(C)C)C(=O)NCC(=O)N[C@@H](Cc4c[nH]c5ccccc45)C(=O)N[C@@H](Cc4ccccc4)C(=O)N[C@@H](CO)C(=O)NCC(=O)N3)NC2=O)C(=O)N[C@@H](Cc2c[nH]cn2)C(=O)N[C@@H](Cc2c[nH]c3ccccc23)C(=O)N[C@@H](CCCCN)C(=O)N[C@@H](Cc2c[nH]cn2)C(=O)N2CCC[C@H]2C(=O)N[C@@H](Cc2c[nH]c3ccccc23)C(=O)N1)C(=O)O [Y26H] | 0.369 | 0.484 | 0.244 |  | 
5 | CC(C)C[C@H](NC(=O)[C@H](CC(=O)O)NC(=O)[C@H](Cc1ccc(O)cc1)NC(=O)[C@H](CCCNC(=N)N)NC(=O)[C@@H]1CSSC[C@@H]2NC(=O)[C@H](CCCCN)NC(=O)[C@H](CC(N)=O)NC(=O)[C@H](CC(N)=O)NC(=O)[C@H](CC(N)=O)NC(=O)[C@H](C)NC(=O)[C@H](CC(=O)O)NC(=O)[C@@H]3CSSC[C@H](NC(=O)[C@H](C(C)C)NC(=O)[C@H](Cc4ccc(O)cc4)NC(=O)CNC(=O)[C@H](CCC(=O)O)NC(=O)[C@H](CSSC[C@H](NC(=O)[C@H](CC(=O)O)NC(=O)CN)C(=O)N[C@@H](CC(C)C)C(=O)NCC(=O)N[C@@H](Cc4c[nH]c5ccccc45)C(=O)N[C@@H](Cc4ccccc4)C(=O)N[C@@H](CO)C(=O)NCC(=O)N3)NC2=O)C(=O)N[C@@H](Cc2c[nH]cn2)C(=O)N[C@@H](Cc2c[nH]c3ccccc23)C(=O)N[C@@H](CCCCN)C(=O)N[C@@H](Cc2ccc(O)cc2)C(=O)N2CCC[C@H]2C(=O)N[C@@H](Cc2c[nH]c3ccccc23)C(=O)N1)C(=O)O [P11A] | 0.208 | 0.6 | 0.12 |  | 
6 | CC(C)C[C@H](NC(=O)[C@H](CC(=O)O)NC(=O)[C@H](Cc1ccc(O)cc1)NC(=O)[C@H](CCCNC(=N)N)NC(=O)[C@@H]1CSSC[C@@H]2NC(=O)[C@H](CCCCN)NC(=O)[C@H](CC(N)=O)NC(=O)[C@H](CC(N)=O)NC(=O)[C@H](CC(N)=O)NC(=O)[C@@H]3CCCN3C(=O)[C@H](CC(=O)O)NC(=O)[C@@H]3CSSC[C@H](NC(=O)[C@H](C(C)C)NC(=O)[C@H](Cc4ccc(O)cc4)NC(=O)CNC(=O)[C@H](CCC(=O)O)NC(=O)[C@H](CSSC[C@H](NC(=O)[C@H](CC(=O)O)NC(=O)CN)C(=O)N[C@@H](CC(C)C)C(=O)NCC(=O)N[C@@H](Cc4c[nH]c5ccccc45)C(=O)N[C@@H](Cc4ccccc4)C(=O)N[C@@H](CO)C(=O)NCC(=O)N3)NC2=O)C(=O)N[C@@H](Cc2c[nH]cn2)C(=O)N[C@@H](Cc2c[nH]c3ccccc23)C(=O)N[C@@H](CCCCN)C(=O)N[C@@H](Cc2ccc(O)cc2)C(=O)N[C@@H](C)C(=O)N[C@@H](Cc2c[nH]c3ccccc23)C(=O)N1)C(=O)O [P27A] | 0.27 | > 3 | 0.166 |  | 
7 | CC(C)C[C@H](NC(=O)[C@H](CC(=O)O)NC(=O)[C@H](Cc1ccc(O)cc1)NC(=O)[C@H](CCCNC(=N)N)NC(=O)[C@@H]1CSSC[C@@H]2NC(=O)[C@H](CCCCN)NC(=O)[C@H](CC(N)=O)NC(=O)[C@H](CC(N)=O)NC(=O)[C@H](CC(N)=O)NC(=O)[C@@H]3CCCN3C(=O)[C@H](CC(=O)O)NC(=O)[C@@H]3CSSC[C@H](NC(=O)[C@H](C(C)C)NC(=O)[C@H](Cc4ccc(O)cc4)NC(=O)CNC(=O)[C@H](CCC(=O)O)NC(=O)[C@H](CSSC[C@H](NC(=O)[C@H](CC(=O)O)NC(=O)CN)C(=O)N[C@@H](CC(C)C)C(=O)NCC(=O)N[C@@H](Cc4c[nH]c5ccccc45)C(=O)N[C@@H](Cc4ccccc4)C(=O)N[C@@H](CO)C(=O)NCC(=O)N3)NC2=O)C(=O)N[C@@H](Cc2c[nH]cn2)C(=O)N[C@@H](Cc2c[nH]c3ccccc23)C(=O)N[C@@H](CCCCN)C(=O)N[C@@H](Cc2ccc(O)cc2)C(=O)N2CCC[C@H]2C(=O)N[C@@H](Cc2ccccc2)C(=O)N1)C(=O)O [W28F] | > 3 | > 3 | 0.544 |  | 
8 | CC(C)C[C@H](NC(=O)[C@H](CC(=O)O)NC(=O)[C@H](Cc1ccc(O)cc1)NC(=O)[C@H](CCCNC(=N)N)NC(=O)[C@@H]1CSSC[C@@H]2NC(=O)[C@H](CCCCN)NC(=O)[C@H](CC(N)=O)NC(=O)[C@H](CC(N)=O)NC(=O)[C@H](CC(N)=O)NC(=O)[C@@H]3CCCN3C(=O)[C@H](CC(=O)O)NC(=O)[C@@H]3CSSC[C@H](NC(=O)[C@H](C(C)C)NC(=O)[C@H](Cc4ccc(O)cc4)NC(=O)CNC(=O)[C@H](CCC(=O)O)NC(=O)[C@H](CSSC[C@H](NC(=O)[C@H](CCCCN)NC(=O)CN)C(=O)N[C@@H](CC(C)C)C(=O)NCC(=O)N[C@@H](Cc4c[nH]c5ccccc45)C(=O)N[C@@H](Cc4ccccc4)C(=O)N[C@@H](CO)C(=O)NCC(=O)N3)NC2=O)C(=O)N[C@@H](Cc2c[nH]cn2)C(=O)N[C@@H](Cc2c[nH]c3ccccc23)C(=O)N[C@@H](CCCCN)C(=O)N[C@@H](Cc2ccc(O)cc2)C(=O)N2CCC[C@H]2C(=O)N[C@@H](Cc2c[nH]c3ccccc23)C(=O)N1)C(=O)O [D1K] | 0.097 | 0.196 | 0.24 |  | 
